Data on 18 molecules can be found in patent US10526337B2, “Heteroaryl derivative or pharmaceutically acceptable salt thereof, preparation method therefor, and pharmaceutical composition for preventing or treating diseases associated with PI3 kinases, containing same as active ingredient” (KOREA RESEARCH INSTITUTE OF CHEMICAL TECHNOLOGY, priority 2015, dated 2020).

The target of experiment [1] is T1, PI3 Kinase (p110δ/p85α) (h) (Homo sapiens, UniProt O00329).
T1 construct: endogenous in cells; host or cells: Raji
T1 sequence (O00329 whole entry): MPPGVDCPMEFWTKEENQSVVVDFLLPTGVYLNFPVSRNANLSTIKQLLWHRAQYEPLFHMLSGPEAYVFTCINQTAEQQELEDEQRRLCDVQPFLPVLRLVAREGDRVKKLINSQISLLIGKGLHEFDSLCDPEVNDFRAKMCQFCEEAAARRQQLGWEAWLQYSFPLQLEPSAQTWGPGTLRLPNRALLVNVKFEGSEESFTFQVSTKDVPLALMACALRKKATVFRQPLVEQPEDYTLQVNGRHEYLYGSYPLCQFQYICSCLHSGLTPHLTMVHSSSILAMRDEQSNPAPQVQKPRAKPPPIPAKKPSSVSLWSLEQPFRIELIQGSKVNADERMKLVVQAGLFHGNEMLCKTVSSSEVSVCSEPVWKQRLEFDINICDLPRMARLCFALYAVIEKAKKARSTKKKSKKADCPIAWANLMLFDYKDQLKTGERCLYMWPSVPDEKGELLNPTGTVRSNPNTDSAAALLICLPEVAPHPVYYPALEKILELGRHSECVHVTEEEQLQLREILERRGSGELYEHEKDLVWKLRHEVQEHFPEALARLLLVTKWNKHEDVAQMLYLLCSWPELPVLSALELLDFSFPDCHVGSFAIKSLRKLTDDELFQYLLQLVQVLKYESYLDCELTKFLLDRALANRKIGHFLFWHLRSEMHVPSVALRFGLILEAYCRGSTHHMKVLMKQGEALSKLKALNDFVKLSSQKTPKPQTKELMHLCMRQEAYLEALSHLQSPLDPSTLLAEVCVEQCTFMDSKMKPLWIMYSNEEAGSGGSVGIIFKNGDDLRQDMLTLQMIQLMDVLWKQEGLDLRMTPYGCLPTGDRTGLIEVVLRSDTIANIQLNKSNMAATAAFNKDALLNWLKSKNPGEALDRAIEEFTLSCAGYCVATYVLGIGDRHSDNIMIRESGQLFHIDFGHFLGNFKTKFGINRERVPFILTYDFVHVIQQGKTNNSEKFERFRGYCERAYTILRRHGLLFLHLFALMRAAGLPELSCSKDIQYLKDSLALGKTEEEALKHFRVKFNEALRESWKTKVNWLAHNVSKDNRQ
T1 sequence (P27986 whole entry partner): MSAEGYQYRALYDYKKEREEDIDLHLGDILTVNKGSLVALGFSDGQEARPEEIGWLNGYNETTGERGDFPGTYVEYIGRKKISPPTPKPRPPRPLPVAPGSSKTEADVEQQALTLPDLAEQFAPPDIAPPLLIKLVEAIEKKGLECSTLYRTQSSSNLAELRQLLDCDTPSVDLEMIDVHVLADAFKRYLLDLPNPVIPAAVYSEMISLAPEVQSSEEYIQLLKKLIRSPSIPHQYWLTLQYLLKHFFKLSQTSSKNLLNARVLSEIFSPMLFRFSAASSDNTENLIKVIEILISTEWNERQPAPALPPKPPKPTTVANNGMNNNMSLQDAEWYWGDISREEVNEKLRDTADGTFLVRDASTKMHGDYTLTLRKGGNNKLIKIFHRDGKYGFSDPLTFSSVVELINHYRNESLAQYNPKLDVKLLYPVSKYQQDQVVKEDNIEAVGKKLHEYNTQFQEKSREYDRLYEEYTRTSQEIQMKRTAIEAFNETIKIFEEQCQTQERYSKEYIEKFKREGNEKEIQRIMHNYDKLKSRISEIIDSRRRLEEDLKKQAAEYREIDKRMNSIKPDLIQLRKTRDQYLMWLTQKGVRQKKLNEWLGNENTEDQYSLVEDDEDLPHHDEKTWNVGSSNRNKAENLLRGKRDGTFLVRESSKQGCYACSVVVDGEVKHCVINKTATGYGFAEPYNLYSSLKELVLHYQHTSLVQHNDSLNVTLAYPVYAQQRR
Put plainly: Inhibition of phosphatidylinositol 3-kinase delta (PI3K δ), pAkt Western blotting in IgM-stimulated Raji cells. Type of experiment: cell-based. The settings on record: ATP=10 uM, sample concentration=100 nM. The procedure: (§1) The stimulated cells were transferred in a 1.5 mL tube, followed by centrifugation at 3000 rpm for 1 minute. 100 μL of RIPA buffer (radioimmunoprecipitation assay buffer, 50 mM Tris-HCl, 5 mM EDTA, 150 mM NaCl, 1% NP-40, 1 mM PMSF, pH 8.0; ELPIS, Korea) was added thereto, which was stored in a 4° C. refrigerator for 12 hours. Centrifugation was performed at 4° C. at 14,000 rpm for 20 minutes. The supernatant was transferred into a new 1.5 mL tube. Protein was quantified by BCA (bicinchoninic acid) method and samples were prepared. The composition of the sample was as follows: sample buffer (ELPIS, EBA-1052) 5×, protein 10 μg, and 1× sample buffer to make the total volume 20 μL. The sample was heated at 100° C. for 5 minutes. The evaporated water vapor was condensed in a refrigerator. The liquid stained on the wall was fallen down by centrifugation for a few seconds. The sample proceeded to 10% SDS (Sodium Dodecyl Sulfate) acrylamide gel for separation. The separated protein was transferred onto PVDF (poly-vinyl difluoride) membrane, followed by reaction with pAkt (phospho protein kinase B) antibody (Ser473 or Thr308; Cell signaling, 9271s or 13038s) for 12 hours at 4° C. The membrane was washed with TBST (Tris-Buffered Saline with Tween 20, 10 mM Tris-HCl, pH 7.5, 150 mM NaCl, 0.1% Tween-20) three times for 5 minutes each, to which the secondary antibody (rabbit antibody, Santacruz, sc-2004) was added, followed by reaction at room temperature for 2 hours. The membrane was washed with TBST three times for 10 minutes each, to which ECL (enhanced chemiluminescence, Thermo, NCI34095KR) was sprayed. Bands were investigated by using LAS-3000.
The inhibition of phosphatidylinositol 3 kinase delta (PI3K δ) by those compounds prepared in Examples 1˜98 was investigated by the following experiment. The inhibition activity of each compound was measured in the following conditions: ATP=10 uM, and sample concentration=100 nM.
(§2) Raji cells cultured in RPMI1640 (Hyclone, SH30027.02) supplemented with 10% fetal bovine serum (Hyclon, USA) were distributed in a 12-well plate at the density of 1,000,000 cells/well. The cells were stabilized in a 37° C. CO2 for 24 hours and then treated with each compound for 1 and half hours. The cells were treated with 0.25 μg/mL of IgM (immunoglobulin M, Southern Biotech, USA) to increase the intracellular activity of PI3K delta. 30 minutes later, the medium was discarded and the cells were washed with cold PBS (phosphate buffered saline, Gibco, 14190-250). PBS was then eliminated completely by using a pipette. Western blotting was performed according to the same manner as described in step 2 of Experimental Example 1 to evaluate the intracellular PI3K delta activity.
A general note: A western blot detects proteins with antibodies after separation by electrophoresis.

For experiment [2], the target named is T2, PI3 Kinase (p120γ) (h) (Homo sapiens, UniProt P48736).
T2 construct: endogenous in cells; host or cells: RAW264.7
T2 sequence (P48736 whole entry): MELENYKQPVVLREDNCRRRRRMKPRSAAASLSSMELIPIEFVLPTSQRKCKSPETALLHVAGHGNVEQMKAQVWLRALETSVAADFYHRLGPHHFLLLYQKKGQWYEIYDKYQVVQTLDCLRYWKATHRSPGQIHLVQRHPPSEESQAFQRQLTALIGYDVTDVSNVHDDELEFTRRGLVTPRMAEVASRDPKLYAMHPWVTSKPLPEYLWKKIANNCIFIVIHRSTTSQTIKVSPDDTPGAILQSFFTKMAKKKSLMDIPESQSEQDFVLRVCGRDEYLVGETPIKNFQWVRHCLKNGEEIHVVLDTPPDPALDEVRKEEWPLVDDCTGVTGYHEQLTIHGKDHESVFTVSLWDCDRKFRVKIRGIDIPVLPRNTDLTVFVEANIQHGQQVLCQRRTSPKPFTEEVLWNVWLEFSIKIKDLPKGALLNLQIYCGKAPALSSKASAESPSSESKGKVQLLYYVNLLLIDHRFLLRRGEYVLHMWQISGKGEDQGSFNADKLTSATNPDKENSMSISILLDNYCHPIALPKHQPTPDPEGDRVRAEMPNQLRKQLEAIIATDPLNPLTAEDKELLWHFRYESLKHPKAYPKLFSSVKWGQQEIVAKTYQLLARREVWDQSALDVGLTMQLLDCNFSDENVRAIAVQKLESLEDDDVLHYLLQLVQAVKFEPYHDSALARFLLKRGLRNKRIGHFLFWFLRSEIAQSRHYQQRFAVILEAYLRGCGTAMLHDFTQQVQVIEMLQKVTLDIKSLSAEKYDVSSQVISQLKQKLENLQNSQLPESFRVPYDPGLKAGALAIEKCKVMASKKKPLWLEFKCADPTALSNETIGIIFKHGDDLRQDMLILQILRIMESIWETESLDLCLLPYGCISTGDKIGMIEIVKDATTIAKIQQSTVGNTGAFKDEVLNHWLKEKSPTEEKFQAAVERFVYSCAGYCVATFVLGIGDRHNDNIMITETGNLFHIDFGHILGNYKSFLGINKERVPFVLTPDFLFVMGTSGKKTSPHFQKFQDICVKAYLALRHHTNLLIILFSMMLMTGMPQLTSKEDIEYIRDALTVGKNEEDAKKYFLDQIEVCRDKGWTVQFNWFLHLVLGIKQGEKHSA
The experiment is described as follows: Inhibition of phosphatidylinositol 3-kinase gamma (PI3K γ), pAkt Western blotting in C5a-stimulated RAW264.7 macrophages. Type of experiment: cell-based, mouse. The settings on record: ATP=10 uM, sample concentration=100 nM. The procedure:
as §1
The inhibition of phosphatidylinositol 3 kinase gamma (PI3K γ) by those compounds prepared in Examples 1˜98 was investigated by the following experiment. The inhibition activity of each compound was measured in the following conditions: ATP=10 uM, and sample concentration=100 nM.
as §2, with “Macrophages (RAW264.7)” for “Raji cells”, “DMEM (Dulbecco's Modified Eagle Medium, Hyclon, SH30243.01)” for “RPMI1640 (Hyclone, SH30027.02)”, “10 ng/mL” for “0.25 μg/mL”, “C5a (complement component 5a, 10 μg/mL; R&D, 2150-C5)” for “IgM (immunoglobulin M, Southern Biotech, USA)”, “gamma. 5” for “delta. 30”, “gamma” for “delta”

With `C[C@H](Nc1ncnc2[nH]ccc(=O)c12)c1nc2ccc(F)cc2c(=O)n1Cc1ccccn1` [Example 32, (S)-4-((1-(6-fluoro-4-oxo-3-(pyridine-2-ylmethyl)-3,4-dihydroquinazoline-2-yl)ethyl)amino)pyrido[2,3-d]pyrimidine-5(8H)-one], the IC50 (commonly the concentration needed to halve the response being measured) in experiment [1] was > 500 nM.
For `C[C@H](Nc1ncnc2c1C(=O)N(C)CN2)c1nc2cccc(Cl)c2c(=O)n1-c1ccccc1` [Example 34, (S)-5-((1-(5-chloro-4-oxo-3-phenyl-3,4-dihydroquinazoline-2-yl)ethyl)amino)-3-methyl-2,3-dihydropyrimido[4,5-d]pyrimidine-4(1H)-one], the IC50 in experiment [2] is 10 to 500 nM; in experiment [1] it was < 10 nM.
For `C[C@H](Nc1ncnc2c1C(=O)N(C)CN2)c1nc2cccc(Cl)c2c(=O)n1-c1cccnc1` [Example 35, (S)-5-((1-(5-chloro-4-oxo-3-(pyridine-3-yl)-3,4-dihydroquinazoline-2-yl)ethyl)amino)-3-methyl-2,3-dihydropyrimido[4,5-d]pyrimidine-4(1H)-one], in that order: 10 to 500 nM and 10 to 500 nM.
Taken in the same sequence, the figures for `C[C@H](Nc1ncnc2c1C(=O)N(C)CN2)c1nc2cccc(Cl)c2c(=O)n1-c1cccc(F)c1` [Example 36, (S)-5-((1-(5-chloro-3-(3-fluorophenyl)-4-oxo-3,4-dihydroquinazoline-2-yl)ethyl)amino)-3-methyl-2,3-dihydropyrimido[4,5-d]pyrimidine-4(1H)-one] were 10 to 500 nM and < 10 nM.
Consider `Cc1cccc(-n2c([C@H](C)Nc3ncnc4c3C(=O)N(C)CN4)nc3cccc(Cl)c3c2=O)c1` [Example 37, (S)-5-((1-(5-chloro-4-oxo-3-(m-tolyl)-3,4-dihydroquinazoline-2-yl)ethyl)amino)-3-methyl-2,3-dihydropyrimido[4,5-d]pyrimidine-4(1H)-one], for which the results for the IC50 in experiment [2] and in experiment [1] were 10 to 500 nM and < 10 nM, respectively.
For `CC(Nc1ncnc2c1C(=O)N(C)CN2)c1cc2ccccc2nc1-c1ccccc1` (centres unmarked) [Example 39, 3-methyl-5-((1-(2-phenylquinoline-3-yl)ethyl)amino)-2,3-dihydropyrimido[4,5-d]pyrimidine-4(1H)-one], in that order: 10 to 500 nM and 10 to 500 nM.
For `C[C@H](Nc1ncnc2c1C(=O)N(C)CN2)c1cc2ccccc2nc1-c1ccccc1` [Example 39-1, (S)-3-methyl-5-((1-(2-phenylquinoline-3-yl)ethyl)amino)-2,3-dihydropyrimido[4,5-d]pyrimidine-4(1H)-one], in that order: < 10 nM and 10 to 500 nM.
Taken in the same sequence, the figures for `CC[C@H](Nc1ncnc2c1C(=O)N(C)CN2)c1nc2cccc(F)c2c(=O)n1-c1ccccc1` [Example 41, (S)-5-((1-(5-fluoro-4-oxo-3-phenyl-3,4-dihydroquinazoline-2-yl)propyl)amino)-3-methyl-2,3-dihydropyrimido[4,5-d]pyrimidine-4(1H)-one] were 10 to 500 nM and 10 to 500 nM.
Consider `CN1CNc2ncnc(N3CCC[C@H]3c3nc4cccc(Cl)c4c(=O)n3-c3ccccc3)c2C1=O` [Example 42, (S)-5-(2-(5-chloro-4-oxo-3-phenyl-3,4-dihydroquinazoline-2-yl)pyrrolidine-1-yl)-3-methyl-2,3-dihydropyrimido[4,5-d]pyrimidine-4(1H)-one], for which the IC50 in experiment [2] and in experiment [1] was 10 to 500 nM in each case.
For `CN1CNc2ncnc(N3CCC[C@H]3c3nc4cccc(Cl)c4c(=O)n3-c3cccnc3)c2C1=O` [Example 43, (S)-5-(2-(5-chloro-4-oxo-3-(pyridine-3-yl)-3,4-dihydroquinazoline-2-yl)pyrrolidine-1-yl)-3-methyl-2,3-dihydropyrimido[4,5-d]pyrimidine-4(1H)-one], the IC50 in experiment [2] and in experiment [1] was > 500 nM in each case.
Consider `CN1CNc2ncnc(N3CCC[C@H]3c3nc4cccc(Cl)c4c(=O)n3-c3cccc(F)c3)c2C1=O` [Example 44, (S)-5-(2-(5-chloro-3-(3-fluorophenyl)-4-oxo-3,4-dihydroquinazoline-2-yl)pyrrolidine-1-yl)-3-methyl-2,3-dihydropyrimido[4,5-d]pyrimidine-4(1H)-one], for which the IC50 in experiment [2] is 10 to 500 nM; in experiment [1] it was < 10 nM.
For `Cc1cccc(-n2c([C@@H]3CCCN3c3ncnc4c3C(=O)N(C)CN4)nc3cccc(Cl)c3c2=O)c1` [Example 45, (S)-5-(2-(5-chloro-4-oxo-3-(m-tolyl)-3,4-dihydroquinazoline-2-yl)pyrrolidine-1-yl)-3-methyl-2,3-dihydropyrimido[4,5-d]pyrimidine-4(1H)-one], in that order: 10 to 500 nM and 10 to 500 nM.
Regarding `CN1CNc2ncnc(N3CCC[C@H]3c3cc4cccc(Cl)c4c(=O)n3-c3ccccc3)c2C1=O` [Example 46, (S)-5-(2-(8-chloro-1-oxo-2-phenyl-1,2-dihydroisoquinoline-3-yl)pyrrolidine-1-yl)-3-methyl-2,3-dihydropyrimido[4,5-d]pyrimidine-4(1H)-one], the results for the IC50 in experiment [2] and in experiment [1] were 10 to 500 nM and < 10 nM, respectively.
In the case of `CN1CNc2ncnc(N3CCC[C@H]3c3nn4ccc(Cl)c4c(=O)n3-c3ccccc3)c2C1=O` [Example 47, (S)-5-(2-(5-chloro-4-oxo-3-phenyl-3,4-dihydropyrrolo[2,1-f][1,2,4]triazine-2-yl)pyrrolidine-1-yl)-3-methyl-2,3-dihydropyrimido[4,5-d]pyrimidine-4(1H)-one], the IC50 in experiment [2] and in experiment [1] was 10 to 500 nM throughout.
Consider `C[C@H](Nc1nc(N)nc2c1C(=O)N(C)CN2)c1nc2cccc(Cl)c2c(=O)n1-c1ccccc1` [Example 48, (S)-7-amino-5-((1-(5-chloro-4-oxo-3-phenyl-3,4-dihydroquinazoline-2-yl)ethyl)amino)-3-methyl-2,3-dihydropyrimido[4,5-d]pyrimidine-4(1H)-one], for which the IC50 in experiment [2] and in experiment [1] was < 10 nM in each case.
Consider `C[C@H](Nc1nc(N)nc2c1C(=O)N(C)CN2)c1nc2cccc(Cl)c2c(=O)n1-c1cccnc1` [Example 49, (S)-7-amino-5-((1-(5-chloro-4-oxo-3-(pyridine-3-yl)-3,4-dihydroquinazoline-2-yl)ethyl)amino)-3-methyl-2,3-dihydropyrimido[4,5-d]pyrimidine-4(1H)-one], for which the IC50 in experiment [2] is 10 to 500 nM; in experiment [1], < 10 nM.
For `C[C@H](Nc1nc(N)nc2c1C(=O)N(C)CN2)c1nc2cccc(Cl)c2c(=O)n1-c1cccc(F)c1` [Example 50, (S)-7-amino-5-((1-(5-chloro-3-(3-fluorophenyl)-4-oxo-3,4-dihydroquinazoline-2-yl)ethyl)amino)-3-methyl-2,3-dihydropyrimido[4,5-d]pyrimidine-4(1H)-one], in that order: 10 to 500 nM and < 10 nM.
For `Cc1cccc(-n2c([C@H](C)Nc3nc(N)nc4c3C(=O)N(C)CN4)nc3cccc(Cl)c3c2=O)c1` [Example 51, (S)-7-amino-5-((1-(5-chloro-4-oxo-3-(m-tolyl)-3,4-dihydroquinazoline-2-yl)ethyl)amino)-3-methyl-2,3-dihydropyrimido[4,5-d]pyrimidine-4(1H)-one], in that order: 10 to 500 nM and < 10 nM.
